From the supplement of paper PMC10307832

Legend:
Experiment in all cases: relative viability (nuclei count vs DMSO), 5 days (fraction); higher = more cells survive
[1] = compound: Cc1cc([C@@H](C)Nc2ccccc2C(=O)O)c2nc(N3CCOCC3)cc(=O)n2c1 [AZD6482] + N=C(N)NC(=N)NCCc1ccccc1 [Phenformin] (partner 250 µM)
Procedure, shortened: (§1)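 Dosing by pin tool came one day after lung cancer cell lines were seeded in 1536-well plates, using either one drug or a fixed anchor-drug dose plus five library-drug doses (not always all listed) in √10 steps. After 5 days, nuclei were counted on 4× images. Relative viability is treated-well nuclei count divided by vehicle-well nuclei count, and values are medians of duplicate plates.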

[2] = compound: COc1cc2nc(N3CCCN(C)CC3)nc(NC3CCN(Cc4ccccc4)CC3)c2cc1OC + CC1(C)CCC(c2ccc(Cl)cc2)=C(CN2CCN(c3ccc(C(=O)NS(=O)(=O)c4ccc(N[C@H](CCN5CCOCC5)CSc5ccccc5)c(S(=O)(=O)C(F)(F)F)c4)cc3)CC2)C1 [Navitoclax] (partner 0.5 µM)
Procedure, shortened: as §1

[3] = compound: Cc1cc([C@@H](C)Nc2ccccc2C(=O)O)c2nc(N3CCOCC3)cc(=O)n2c1 [AZD6482]
Procedure, shortened: (§2)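 Vehicle-anchored 1536-well plates of lung cancer cell lines, held overnight at 37 °C, were pinned with five library-drug doses (not always all listed) spaced by √10. No medium change followed over the next 5 days, after which the cells were fixed, permeabilised and Hoechst-stained together and imaged at 4×. Nuclei were counted with MetaXpress, and viability is treated-well nuclei over vehicle-well nuclei, taken as a median across plates. Plates passed with control CV below 25% and at least one doubling.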

[4] = compound: COc1cc2nc(N3CCCN(C)CC3)nc(NC3CCN(Cc4ccccc4)CC3)c2cc1OC
Procedure, shortened: as §2

Row | Cell Line | relative viability ([1]; first compound 0.08 µM) | relative viability ([1]; first compound 0.253 µM) | relative viability ([1]; first compound 0.8 µM) | relative viability ([1]; first compound 2.53 µM) | relative viability ([1]; first compound 8 µM) | relative viability ([2]; first compound 0.2 µM) | relative viability ([2]; first compound 0.6325 µM) | relative viability ([2]; first compound 2 µM) | relative viability ([2]; first compound 6.325 µM) | relative viability ([3]; 0.08 µM) | relative viability ([3]; 0.253 µM) | relative viability ([3]; 0.8 µM) | relative viability ([3]; 2.53 µM) | relative viability ([3]; 8 µM) | relative viability ([4]; 0.2 µM) | relative viability ([4]; 0.6325 µM) | relative viability ([4]; 2 µM) | relative viability ([4]; 6.325 µM)
1 | CAL-12T | 0.615 | 0.517 | 0.568 | 0.336 | 0.418 | 1.28 | 1.23 | 1.27 | 1.19 | 0.959 | 0.979 | 1.1 | 0.731 | 0.839 | 0.905 | 0.964 | 1.02 | 0.933
2 | RERF-LC-KJ | 0.424 | 0.401 | 0.368 | 0.394 | 0.292 | 0.94 | 0.884 | 0.926 | 0.72 | 0.875 | 0.888 | 0.784 | 0.878 | 0.763 | 0.995 | 0.977 | 1.04 | 0.912
3 | NCI-H1650 | 0.333 | 0.369 | 0.373 | 0.233 | 0.297 | 1.25 | 1.07 | 1.48 | 1.07 | 0.839 | 0.854 | 0.778 | 0.719 | 0.862 | 0.863 | 1.03 | 0.924 | 0.835
4 | BEN | 0.349 | 0.281 | 0.24 | 0.277 | 0.182 | 0.0596 | 0.0723 | 0.0708 | 0.0777 | 0.889 | 0.791 | 1.05 | 0.803 | 0.853 | 1.03 | 1.06 | 1.19 | 1.04
5 | EMC-BAC-2 | 0.489 | 0.445 | 0.493 | 0.352 | 0.44 | 1.16 | 1.14 | 1.14 | 1.17 | 0.976 | 0.898 | 1.01 | 0.722 | 0.748 | 1.14 | 0.981 | 0.996 | 1.04
6 | LU99A | 0.903 | 0.848 | 0.791 | 0.691 | 0.813 | 0.899 | 0.689 | 0.625 | 0.815 | 0.915 | 0.894 | 1.04 | 0.797 | 0.948 | 0.868 | 0.838 | 1.03 | 0.885
7 | ABC-1 | 0.212 | 0.237 | 0.283 | 0.229 | 0.205 | – | – | – | – | 0.953 | 0.897 | 0.97 | 0.849 | 0.713 | 0.924 | 1.12 | 1 | 0.926
8 | NCI-H1299 | – | – | – | – | – | 1.07 | 1.04 | 1.09 | 1.02 | 0.998 | 1.07 | 1.14 | 0.914 | 1.02 | 0.984 | 1.03 | 1.06 | 0.97
9 | EBC-1 | – | – | – | – | – | 0.408 | 0.386 | 0.382 | 0.165 | 0.881 | 0.923 | 0.855 | 0.467 | 0.449 | 0.948 | 0.9 | 0.976 | 0.827
10 | NCI-H1648 | – | – | – | – | – | – | – | – | – | 0.888 | 0.863 | 0.954 | 0.519 | 0.599 | 0.713 | 0.798 | 0.757 | 1.13
11 | NCI-H650 | 0.467 | – | 0.431 | 0.292 | 0.31 | – | – | – | – | 1.07 | – | 0.92 | 0.653 | 0.685 | 0.973 | 0.935 | 1.09 | 0.862
12 | NCI-H358 | 0.305 | 0.323 | 0.317 | 0.163 | 0.233 | – | – | – | – | 0.856 | 0.86 | 0.92 | 0.468 | 0.489 | 0.918 | 1.03 | 0.939 | 0.684
13 | NCI-H1563 | 0.684 | 0.653 | 0.67 | 0.65 | 0.629 | – | – | – | – | 0.829 | 0.852 | 0.906 | 0.763 | 0.722 | 0.974 | 0.963 | 0.967 | 0.966
14 | NCI-H522 | 0.607 | 0.764 | 0.7 | 0.654 | 0.396 | – | – | – | – | 0.959 | 0.789 | 0.981 | 0.926 | 0.768 | 0.987 | 1.01 | 0.936 | 1.02
15 | IA-LM | – | – | – | – | – | 0.761 | 0.689 | 1.01 | 0.64 | 0.979 | 0.99 | 1.03 | – | 0.842 | 0.941 | 0.865 | 1.08 | 0.862
16 | NCI-H1703 | – | – | – | – | – | 1.25 | 0.92 | 1.11 | 0.41 | 0.861 | 0.797 | 0.676 | 0.332 | 0.414 | 1.09 | 0.789 | 0.975 | 0.571
17 | LCLC-103H | 0.255 | 0.274 | 0.342 | 0.251 | 0.215 | – | – | – | – | 0.875 | 1.04 | 0.948 | 0.655 | 0.575 | 0.992 | 1.03 | 1.1 | 0.978
18 | SW 900 | 0.48 | 0.29 | 0.449 | – | 0.414 | – | – | – | – | 0.675 | 0.683 | 0.691 | 0.486 | 0.778 | 0.81 | 1.03 | 0.89 | 0.752
